The numbers were not newly measured in patent US20250325256A1, “LIPID PATCH” (SENSACH AB, priority 2021, published 2025), which cites them from elsewhere.

For the data set the following is noted: cited from earlier work.

`CCCCCCCC/C=C\CCCCCCCC(=O)OCC(O)CO` (stereo not shown) [GMO, Glycerol monooleate]: the solubility in water entry was “around 10^−6 M”.
